From publication PMC11475664, “Alpha-glucosidase inhibitory compounds from Vietnamese lichen Usnea baileyi: in vitro and in silico aspects” (RSC Advances, 2024)
In brackets after ≈: the same amount, converted by molar mass. Like-named read-outs stand apart in the source and are kept apart here.

Assays:
alpha-glucosidase [1] = conditions: cited from earlier work
yeast alpha-glucosidase = assay: Alpha-glucosidase inhibition assay; assay type: biochemical; conditions: for IC50: yeast alpha-glucosidase
Description: Evaluation of the inhibitory activity of compounds against yeast alpha-glucosidase followed a previous procedure.[30]

Hek293 cells = assay: Cytotoxicity assay (MTT, 72 h) on Hek293; assay type: cell-based; conditions: Homo sapiens, read-out: Hek293 IC50
Experimental: (§1) Table S2. Cytotoxicity of compounds 1-6, 11, 1a-1e, and 6a […]
(§2) The method used followed that reported by Nguyen et al. (2022). Briefly, HepG2 and Hek293 cells in a complete medium containing DMEM (HyClone, Cytiva, USA) and 10% fetal bovine serum (FBS) were seeded into a 96-well plate at 5 × 10^4 cells per well. The cells were then incubated at 37°C with 5% CO2. After culturing for 24 h, the old medium was replaced by diluted compounds (in DMSO), positive control Doxorubicin (DOX, Fesenius Kabi, Germany), and negative control dimethyl sulfoxide (DMSO, Sigma-Aldrich, Germany). After 72 h of treatment, MTT (3-(4,5-Dimethyl-2-thiazolyl)-2,5-diphenyl-2H-tetrazolium bromide) was added into each well of the test plate. The plate was incubated at 37°C with 5% CO2 for another 3 h. DMSO was used to dissolve the crystals from the interaction between MTT and viable cells. The absorbance of samples was read at 570 nm by the ELISA Reader (BioTek, USA). Cell death (% inhibition) was estimated by the following formula:
(§3) % Inhibition = 100 − [100 × (A Sample – A B1)/(ADMSO – A B2)]
(§4) Where, ASample: Absorbance of sample, ADMSO: Absorbance of negative control, AB1: Absorbance of blank of sample, AB2: Absorbance of blank of DMSO. The IC50 value and the inhibitory chart were respectively calculated and built using GraphPad Prism software (version 8.0.1, Insightful Science LLC, […]
(§5) Ref: Nguyen HH, Aree T, Nguyen HT, et al. Diorygmones A-B, two new guaiane-sesquiterpenes from the cultured lichen mycobiont of Diorygma sp. Natural Product Research. Published online February 1,

HepG2 cells = assay: Cytotoxicity assay (MTT, 72 h) on HepG2; assay type: cell-based; conditions: Homo sapiens, read-out: HepG2 IC50
Experimental: as §1, §2, §3, §4, §5

alpha-glucosidase [2] = assay: Inhibitory type assay of 1e on alpha-glucosidase (Lineweaver–Burk plots, pNPG substrate); assay type: biochemical, yeast
Experimental: Replacing the imine group in 1a and 1b for the aldehyde group in 1 enhances the activity. […] In contrast, the bromine atoms within a depsidone skeleton (1c, 1d, and 6a) decrease the activity. […] At concentrations of 0, 1.82, 3.64, 7.28, and 14.57 μM of 1e, the activity was evaluated. […] This type was identical to that of parmosidone F.[18]
The mechanisms of inhibition of alpha-glucosidase by 1e were determined by Lineweaver–Burk plots using methods similar to those reported in the literature.[18] Enzyme inhibition due to various concentrations of 1e was evaluated by monitoring the effects of different substrate concentrations. For Lineweaver–Burk double reciprocal plots 1/enzyme velocity (1/V) vs. 1/substrate concentration (1/[S]), the inhibition type was determined using various concentrations of pNPG (1 mM, 2 mM, and 4 mM) as a substrate in the presence of different concentrations of the test compounds (0, 1.82, 3.64, 7.28, and 14.57 μM for 1e). The experiments were carried out in 3 replicates. The mixtures were incubated at 37 °C and the optical density was measured at 405 nm every 1 minutes for 30 minutes with the ELx800 Absorbance Microplate Reader (BioTek Instruments, Inc., Vermont, USA). Optimal concentrations of the tested compounds were chosen based on the IC50 values. […]

[3] = Cytotoxicity assay (MTT, 72 h) on Hek293; assay type: cell-based; conditions: human
Experimental: as §1, §2, §3, §4, §5

[4] = Cytotoxicity assay (MTT, 72 h) on HepG2; assay type: cell-based; conditions: human
Experimental: as §1, §2, §3, §4, §5

[5] = read-out: IC50, alpha-glucosidase inhibition, previously reported
[6] = normal cells Hek293, MTT, 72 h, Table S2
[7] = liver cancer cell line HepG2, MTT, 72 h, Table S2
[8] = read-out: IC50, alpha-glucosidase inhibition of natural analogs of 1e (Fig. 9)
[9] = read-out: IC50, alpha-glucosidase inhibition of related synthetic analogs (Fig. 8)

IC50 (yeast alpha-glucosidase) [µM]	Compound	IC50 (Hek293 cells; [6]) [µg/mL]	IC50 (HepG2 cells; [7]) [µg/mL]	also measured
70.6 ± 1.2	Cc1cc(O)c(C=O)c2c1C(=O)Oc1c(CO)c(O)c(C(=O)O)c(C)c1O2 [Compound 1, protocetraric acid]	35.7 ± 2.4 (≈ 95.5 µM)	63.6 ± 0.06 (≈ 170 µM)	IC50 (alpha-glucosidase [1]; [5]): 81.6 µM
25.9 ± 2.2	Cc1cc(O)c(/C=N/Nc2ccccc2)c2c1C(=O)Oc1c(CO)c(O)c(C(=O)O)c(C)c1O2 [Compound 1a, (E)-3,8-dihydroxy-9-(hydroxymethyl)-1,6-dimethyl-11-oxo-4-((2-phenylhydrazono-)methyl)-11H-dibenzo[b,e][1,4]dioxepine-7-carboxylic acid]	> 100	> 100	–
20.7 ± 1.1	Cc1cc(O)c(/C=N/Nc2ccc(Br)cc2)c2c1C(=O)Oc1c(CO)c(O)c(C(=O)O)c(C)c1O2 [Compound 1b, (E)-4-((2-(4-bromophenyl)hydrazono)methyl)-3,8-dihydroxy-9-(hydroxymethyl)-1,6-dimethyl-11-oxo-11H-dibenzo[b,e][1,4]dioxepine-7-carboxylic acid]	> 100	> 100	–
80.7 ± 1.8	Cc1c(Br)c(O)c(Br)c2c1Oc1c(Br)c(O)c(Br)c(C)c1C(=O)O2 [Compound 1c, 2,4,7,9-tetrabromo-3,8-dihydroxy-1,6-dimethyl-11H-dibenzo[b,e][1,4]dioxepin-11-one]	58.9 ± 2.84 (≈ 100 µM)	76.5 ± 1.07 (≈ 130 µM)	–
91.8 ± 1.5	CC(=O)OCc1c(O)c(Br)c(C)c2c1OC(=O)c1c(C)c(Br)c(O)c(Br)c1O2 [Compound 1d, (2,4,7-tribromo-3,8-dihydroxy-1,6-dimethyl-11-oxo-11H-dibenzo[b,e][1,4]dioxep-in-9-yl)methyl acetate]	61.1 ± 2.71	86.7 ± 0.68	–
10.4 ± 0.4	Cc1cc(O)c(C=O)c2c1C(=O)Oc1c(C)c(C(=O)O)c(O)c(Cc3c(O)cc(O)c(Cc4c(O)c(C(=O)O)c(C)c5c4Oc4c(C=O)c(O)cc(C)c4C(=O)O5)c3C)c1O2 [Compound 1e, 6,6′-((4,6-dihydroxy-2-methyl-1,3-phenylene)bis(methylene))bis(4-formyl-3,7-dihydroxy-1,9-dimethyl-11-oxo-11H-dibenzo[b,e][1,4]dioxepine-8-carboxylic acid)]	> 100	> 100	inhibition type (alpha-glucosidase [2]; Lineweaver–Burk plots, 0, 1.82, 3.64, 7.28, 14.57 μM of 1e): mixed-mode inhibitor; Ki (alpha-glucosidase [2]; secondary plot, Fig. 4B, read-out: Ki, inhibition constant of binding with the free enzyme): 6.65 ± 0.48 µM; alpha-glucosidase inhibition, fold stronger than 1 (yeast alpha-glucosidase; compared with 1): seven-fold
41.8 ± 1.5	COc1cc(C)c2c(c1C=O)Oc1c(c(C)c(O)c3c1C(OC)OC3=O)OC2=O (stereo not drawn) [Compound 2, 8′-methylstictic acid]	> 100	> 100	–
30.4 ± 1.4	COc1cc(C)c2c(c1C=O)Oc1c(c(C)c(O)c3c1C(O)OC3=O)OC2=O (stereo not drawn) [Compound 3, stictic acid]	33.9 ± 1.6 (≈ 87.8 µM)	> 100	–
> 200	COc1cc(C)c2c(c1C=O)Oc1c(C=O)c(C(=O)O)c(O)c(C)c1OC2=O [Compound 4, 4,6-diformyl-8-hydroxy-3-methoxy-1,9-dimethyl-11-oxo-11H-dibenzo[b,e][1,4]dioxepine-7-carboxylic acid]	> 100	> 100	–
> 200	COc1c(C)c2c(c(C)c1Cl)Oc1c(C)c(O)c(Cl)c(C)c1C(=O)O2 [Compound 5, vicanicin]	> 100	> 100	–
50.7 ± 2.7	Cc1cc(O)c(C=O)c2c1C(=O)Oc1c(C)c(O)c3c(c1O2)C(O)OC3=O (stereo not drawn) [Compound 6, norstictic acid]	> 100	> 100	–
102 ± 1.8	Cc1c(O)c2c(c3c1OC(=O)c1c(C)c(Br)c(O)c(C=O)c1O3)C(O)OC2=O (stereo not drawn) [Compound 6a, 9-bromo-1,4,10-trihydroxy-5,8-dimethyl-3,7-dioxo-3,7-dihydro-1H-benzo[6,7][1,4]-dioxepino[2,3-e]isobenzofuran-11-carbaldehyde]	88.2 ± 2.02 (≈ 195 µM)	> 100	–
> 200	COc1cc(C)c(C(=O)Oc2cc(C)c(C(=O)O)c(O)c2C)c(OC)c1C [Compound 7, diffractaic acid]	–	–	IC50 (alpha-glucosidase [1]; [5]): 420 µM
> 200	COc1cc(C)c(C(=O)Oc2cc(C)c(C(=O)O)c(O)c2C)c(O)c1C [Compound 8, barbatic acid]	–	–	–
> 200	Cc1c(Cl)c(O)c(C=O)c(O)c1C(=O)O [Compound 10, 5-chlorohaematommic acid]	–	–	–
–	Cc1cc(OC(=O)c2c(O)cc(O)c(Cc3c(O)c(C(=O)O)c(C)c4c3Oc3c(C=O)c(O)cc(C)c3C(=O)O4)c2C)cc(O)c1C(=O)O [Cristifone A]	–	–	IC50 (alpha-glucosidase [1]; [8]): 21.5 µM
–	Cc1cc(O)c(C=O)c(O)c1Cc1c(O)c(C(=O)O)c(C)c2c1Oc1c(C=O)c(O)cc(C)c1C(=O)O2 [Cristifone B]	–	–	inhibition type, previously reported (alpha-glucosidase [1]): non-competitive inhibitors; IC50 (alpha-glucosidase [1]; [8]): 18.4 µM
–	COc1cccc2c1C(=O)c1c(O)c3c(c(O)c1C2=O)C[C@@](O)(C(=O)CO)C[C@@H]3O[C@H]1C[C@H](N)[C@H](O)[C@H](C)O1 [Doxorubicin, reference compound]	2.13 ± 0.01 (≈ 3.92 µM)	1.89 ± 0.03 (≈ 3.48 µM)	–
–	Cc1cc(O)c(/C=N/Nc2ccc(Br)cc2)c2c1C(=O)Oc1c(CO)c(O)c3c(c1O2)C(O)OC3=O (stereo not drawn) [I, (E)-11-((2-(4-bromophenyl)hydrazineylidene)methyl)-1,4,10-trihydroxy-5-(hydroxymethyl)-8-methyl-7H-benzo[6,7][1,4]dioxepino[2,3-e]isobenzofuran-3,7(1H)-dione]	–	–	inhibition type, previously reported (alpha-glucosidase [1]): non-competitive inhibitors; IC50 (alpha-glucosidase [1]; [9]): 11.3 µM
–	Cc1c(Br)c(O)c(Br)c2c1C(=O)Oc1c(CO)c(O)c(Br)c(C=O)c1O2 [III]	–	–	IC50 (alpha-glucosidase [1]; [9]): 16.4 µM
–	Cc1cc(O)c(/C=N/Nc2ccc(Cl)cc2)c2c1C(=O)Oc1c(CO)c(O)c3c(c1O2)C(O)OC3=O (stereo not drawn) [II]	–	–	IC50 (alpha-glucosidase [1]; [9]): 19.4 µM
–	Cc1c(Br)c(O)c(Br)c2c1C(=O)Oc1c(CO)c(O)c3c(c1O2)C(O)OC3=O (stereo not drawn) [IV]	–	–	IC50 (alpha-glucosidase [1]; [9]): 15.6 µM
–	Cc1cc(OC(=O)c2c(C)cc(O)cc2O)cc(O)c1Cc1c(O)c(C(=O)O)c(C)c2c1Oc1c(C=O)c(O)cc(C)c1C(=O)O2 [Parmoferone A]	–	–	IC50 (alpha-glucosidase [1]; [8]): 18.1 µM
–	Cc1cc(O)cc(O)c1Cc1c(O)c2c(c3c1OC(=O)c1c(C)cc(O)c(C=O)c1O3)C(O)OC2=O (stereo not drawn) [Parmosidone F]	–	–	inhibition type, previously reported (alpha-glucosidase [1]): mixed-mode inhibitor; IC50 (alpha-glucosidase [1]; [8]): 2.2 µM
–	CC(=O)C=Cc1c(O)cc(C)c2c1Oc1c(c(Cc3c(C)cc(O)cc3O)c(O)c3c1C(O)OC3=O)OC2=O (stereo not drawn) [Parmosidone G]	–	–	IC50 (alpha-glucosidase [1]; [8]): 4.3 µM
–	COC(=O)c1c(C)c(Cc2c(O)cc(C)c3c2Oc2c(C=CC(C)=O)c(O)cc(C)c2C(=O)O3)c(O)c(C)c1O [Parmosidone H]	–	–	IC50 (alpha-glucosidase [1]; [8]): 17.6 µM
–	COC(=O)c1c(C)c(Cc2c(O)c(C(=O)O)c(C)c3c2Oc2c(C=O)c(O)cc(C)c2C(=O)O3)c(O)c(C=O)c1O [Parmosidone J]	–	–	IC50 (alpha-glucosidase [1]; [8]): 10.7 µM
–	Cc1cc(O)cc(O)c1Cc1c(O)c(C(=O)O)c(C)c2c1Oc1c(C=O)c(O)cc(C)c1C(=O)O2 [Parmosidone K]	–	–	IC50 (alpha-glucosidase [1]; [8]): 6.1 µM
–	Cc1c(Br)c(O)c(C=O)c2c1C(=O)Oc1c(Br)c(O)c3c(c1O2)C(O)OC3=O (stereo not drawn) [V]	–	–	IC50 (alpha-glucosidase [1]; [9]): 14.3 µM

Compound	IC50 (yeast alpha-glucosidase) [µM]	IC50 (Hek293 cells; [6]) [µg/mL]	IC50 (HepG2 cells; [7]) [µg/mL]	also measured
Cc1cc(O)c(C=O)c(O)c1 [Compound 9, atranol]	> 200	–	–	IC50 (alpha-glucosidase [1]; [5]): 559 µM
COC(=O)[C@]12Oc3ccc(-c4ccc5c(c4O)C(=O)[C@@H]4CC[C@@H](C)[C@H](O)[C@]4(C(=O)OC)O5)c(O)c3C(=O)C1=C(O)C[C@H](C)[C@H]2O [Compound 11, eumitrin A1]	130 ± 2	–	–	IC50 at 72 h [3]: 60.3 µM; IC50 (Hek293 cells; HEK293, 72 h): 37.6 ± 4.3 µg/mL (≈ 60.2 µM); IC50 at 72 h [4]: 62.1 µM; IC50 (HepG2 cells; HepG2, 72 h): 38.8 ± 0.5 µg/mL (≈ 62.1 µM)
